Patent US6495715B2, “Calcium channel blockers” (Warner-Lambert Company, priority 1997, dated 2002)
Counter-ions that a name gives are not always drawn.

What was measured:
N-type Ca2+ channel = molecular target: T1, N-type Ca2+ channel (Homo sapiens, UniProt Q00975); experiment: Measurement of N-type Ca2+ channel blocking potencies in IMR-32 cells using the fluorescent Ca2+ indicator Indo-1; format: cell-based; conditions: for IC50: K+-stimulated Ca2+ flux, 5 μM nitrendipine to block L-type channels; for inhibition at 1 µM: 1 μM compound, read-out: IMR 32 % of Blockade @ 1 μM; for inhibition at 1 µM / inhibition at 10 µM: 5 μM nitrendipine; for inhibition at 10 µM: 10 μM compound, read-out: IMR 32 % of Blockade @ 10 μM
T1 construct: host or cells: IMR-32 cells, differentiated with dibutyryl cAMP and bromodeoxyuridine
Procedure: Measurement of N-type Ca^2+ Channel Blocking Potencies of Compounds in IMR-32 Cells Using the Fluorescent Ca^2+Indicator Indo-1
IMR-32 cells are a human tumoral cell line of neural origin. […] Calcium flux into these cells may be induced by stimulation with elevated potassium concentrations. The L-channel component of calcium flux may be blocked by adding 5 μM nitrendipine. The remaining component of calcium entry into the IMR-32 cells is due to calcium flux through N-type calcium channels. Intracellular calcium concentrations are measured using the fluorescent calcium indicator Indo-1. The effect of drug concentration on calcium uptake is studied.
The IMR-32 cell line was obtained from the American Type Culture Collection (Rockville, Md.). Cells were grown in Eagle's Minimum Essential Medium with Earle's salts supplemented with 10% fetal bovine serum, 2 mM L-Gln and antibiotic/antimycotic mixture (Gibco). […] After 7 to 13 days of differentiation, cells were detached using 0.5 mM EDTA and loaded with 5 μM Indo-1 acetoxymethyl ester (Molecular Probes, Eugene, Oreg.) at 30° C. for 45 minutes. Loaded cells were washed twice, resuspended (˜10^7 cells/mL) in assay buffer (10 mM HEPES/Tris pH 7.4 in Hank's Balanced Salt Solution without bicarbonate or phenol red containing 0.5% bovine serum albumin) and kept on ice until use. Fluorescence measurements were carried out in a Photon Technology International (PTI, South Brunswick, N.J.) Model RF-F3004 spectrofluorometer with dual emission monochromators using excitation at […] and emission at 400 and 490 nm. The instrument was equipped with a thermostated cuvette holder with stirring capabilities as well as with a computer-controlled pump which allowed for reagent addition during measurement. Instrument control and data collection was done by PTI's OSCAR software running on an IBM compatible computer. Different concentrations of the test compounds (60 μL in dimethyl sulfoxide) were added to 5.94 mL of assay buffer containing approximately 3×10^6 loaded cells, and 5 μM Nitrendipine (in […] EtOH) to block L-type Ca^2+ channels. Samples were incubated for 10 minutes at 30° C. and then aliquoted into three 10×10 mm disposable acrylic cuvettes. Emission signals at 400 and 490 nm were acquired from each cuvette at 30° C. for 50 seconds. At 20 seconds after the start of reading, cells were depolarized by the addition of 160 μL of stimulation solution (1 M KCl, 68 mM CaCl2) to the cuvette via the computer-controlled pump. Ratio of dual emission signals (400 nm/490 nm), which is proportional to intracellular Ca^2+ concentration, was plotted against time, and the difference between maximal response after stimulation and basal value (before stimulation) was determined. Values obtained in this way were plotted as a function of drug concentration. IC50 values of test compounds were calculated by fitting a four-parameter logistic function to the data using the least squares method.

DBA/2 mice = experiment: Audiogenic seizure (anticonvulsant) test in DBA/2 mice; format: in vivo; conditions: Mus musculus, intravenous, sound-induced tonic seizures, tested 15 or 45 minutes after injection, read-out: DBA/2 mice % Protection
Procedure: In vivo Biological Protocol:
A compound of the present invention was dissolved in water using 10% (weight/volume) Emulphor (GAF Corp., Wayne, N.J.) surfactant. Substances were administered by intravenous injection into the retro-orbital venous sinus. All testing was performed 15 minutes or 45 minutes after drug injection. All the male mice, 3-4 weeks old were obtained from Jackson Laboratories Bar Harbour, Me. Immediately before anticonvulsant testing, mice were placed upon a wire mesh, 4 inches square suspended from a steel rod. The square was slowly inverted through 180 degrees and mice observed for 30 seconds. Any mouse falling from the wire mesh was scored as ataxia.
Mice were placed into an enclosed acrylic plastic chamber (21 cm height, approximately 30 cm diameter) with a high-frequency speaker (4 cm diameter) in the center of the top lid. An audio signal generator (Protek model B-810) was used to produce a continuous sinusoidal tone that was swept linearly in frequency between 8 kHz and 16 kHz once each 10 msec. The average sound pressure level (SPL) during stimulation was approximately 100 dB at the floor of the chamber. Mice were placed within the chamber and allowed to acclimatize for 1 minute. DBA/2 mice in the vehicle-treated group responded to the sound stimulus (applied until tonic extension occurred, or for a maximum of 60 sec) with a characteristic seizure sequence consisting of wild running followed by clonic seizures, and later by tonic extension, and finally by respiratory arrest and death in 80% or more of the mice. In vehicle-treated mice, the entire sequence of seizures to respiratory arrest lasts approximately 15-20 seconds.
The incidence of all the seizure phases in the drug-treated and vehicle-treated mice was recorded, and the occurrence of tonic seizures were used for calculating anticonvulsant ED50 values by probit analysis. Mice were used only once for testing at each time and dose point.

T1 sequence (Q00975 whole entry): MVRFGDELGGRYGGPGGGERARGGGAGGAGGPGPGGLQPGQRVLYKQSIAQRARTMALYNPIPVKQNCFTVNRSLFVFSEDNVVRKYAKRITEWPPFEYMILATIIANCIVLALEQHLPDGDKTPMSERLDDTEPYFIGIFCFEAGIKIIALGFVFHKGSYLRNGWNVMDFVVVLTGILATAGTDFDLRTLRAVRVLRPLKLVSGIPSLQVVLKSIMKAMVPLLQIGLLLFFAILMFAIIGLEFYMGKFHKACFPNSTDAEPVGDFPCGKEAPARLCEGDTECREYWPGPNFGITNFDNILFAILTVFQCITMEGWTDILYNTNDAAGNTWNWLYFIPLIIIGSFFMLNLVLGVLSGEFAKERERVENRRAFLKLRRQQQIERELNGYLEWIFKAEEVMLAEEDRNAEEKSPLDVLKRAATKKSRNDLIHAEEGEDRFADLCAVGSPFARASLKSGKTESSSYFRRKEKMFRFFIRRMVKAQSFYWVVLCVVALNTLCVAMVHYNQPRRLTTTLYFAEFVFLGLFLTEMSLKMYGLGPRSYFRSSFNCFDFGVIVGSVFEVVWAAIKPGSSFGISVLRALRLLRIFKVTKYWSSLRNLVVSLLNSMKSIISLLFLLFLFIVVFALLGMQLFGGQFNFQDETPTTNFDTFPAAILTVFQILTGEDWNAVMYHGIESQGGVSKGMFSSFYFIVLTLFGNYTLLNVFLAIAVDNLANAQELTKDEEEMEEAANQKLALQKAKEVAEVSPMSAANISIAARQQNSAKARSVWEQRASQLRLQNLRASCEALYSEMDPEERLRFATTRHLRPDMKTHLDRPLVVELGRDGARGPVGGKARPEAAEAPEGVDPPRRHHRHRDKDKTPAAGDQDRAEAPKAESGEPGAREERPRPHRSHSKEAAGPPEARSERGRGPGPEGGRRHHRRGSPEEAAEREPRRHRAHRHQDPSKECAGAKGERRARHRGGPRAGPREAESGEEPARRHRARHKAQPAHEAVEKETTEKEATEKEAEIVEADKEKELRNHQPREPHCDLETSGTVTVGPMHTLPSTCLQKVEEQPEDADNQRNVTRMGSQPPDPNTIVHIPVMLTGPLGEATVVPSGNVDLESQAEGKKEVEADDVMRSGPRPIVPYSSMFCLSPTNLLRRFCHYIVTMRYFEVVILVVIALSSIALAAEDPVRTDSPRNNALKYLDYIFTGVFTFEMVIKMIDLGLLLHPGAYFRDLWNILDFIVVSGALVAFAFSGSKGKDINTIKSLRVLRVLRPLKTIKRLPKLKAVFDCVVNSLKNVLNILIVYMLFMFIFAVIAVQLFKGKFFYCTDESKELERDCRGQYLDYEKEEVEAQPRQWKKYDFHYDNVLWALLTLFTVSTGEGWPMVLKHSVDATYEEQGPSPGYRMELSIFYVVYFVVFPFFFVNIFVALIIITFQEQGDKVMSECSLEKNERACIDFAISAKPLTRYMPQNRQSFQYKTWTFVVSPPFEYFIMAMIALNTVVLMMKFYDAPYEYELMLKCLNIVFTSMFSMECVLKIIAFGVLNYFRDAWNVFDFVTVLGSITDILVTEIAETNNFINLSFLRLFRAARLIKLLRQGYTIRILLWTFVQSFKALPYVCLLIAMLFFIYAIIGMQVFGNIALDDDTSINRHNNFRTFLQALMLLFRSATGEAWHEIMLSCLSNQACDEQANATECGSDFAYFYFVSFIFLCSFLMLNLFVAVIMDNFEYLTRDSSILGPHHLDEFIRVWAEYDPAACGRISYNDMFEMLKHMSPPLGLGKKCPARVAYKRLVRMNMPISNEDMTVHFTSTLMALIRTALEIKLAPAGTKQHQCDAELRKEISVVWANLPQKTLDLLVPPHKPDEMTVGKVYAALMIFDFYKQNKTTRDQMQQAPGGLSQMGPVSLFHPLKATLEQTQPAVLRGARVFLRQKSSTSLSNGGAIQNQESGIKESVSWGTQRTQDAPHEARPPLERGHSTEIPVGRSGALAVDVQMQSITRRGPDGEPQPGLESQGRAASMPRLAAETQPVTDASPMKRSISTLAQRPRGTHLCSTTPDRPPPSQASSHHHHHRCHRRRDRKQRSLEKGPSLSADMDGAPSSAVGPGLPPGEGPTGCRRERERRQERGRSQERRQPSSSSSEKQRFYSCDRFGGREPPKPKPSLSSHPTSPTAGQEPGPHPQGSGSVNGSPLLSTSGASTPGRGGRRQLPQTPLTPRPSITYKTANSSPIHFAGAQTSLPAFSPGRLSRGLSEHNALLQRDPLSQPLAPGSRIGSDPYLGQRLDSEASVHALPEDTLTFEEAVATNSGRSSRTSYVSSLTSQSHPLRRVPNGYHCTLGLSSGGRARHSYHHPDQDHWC
T1 sequence (P54289 25-956 partner limits assumed): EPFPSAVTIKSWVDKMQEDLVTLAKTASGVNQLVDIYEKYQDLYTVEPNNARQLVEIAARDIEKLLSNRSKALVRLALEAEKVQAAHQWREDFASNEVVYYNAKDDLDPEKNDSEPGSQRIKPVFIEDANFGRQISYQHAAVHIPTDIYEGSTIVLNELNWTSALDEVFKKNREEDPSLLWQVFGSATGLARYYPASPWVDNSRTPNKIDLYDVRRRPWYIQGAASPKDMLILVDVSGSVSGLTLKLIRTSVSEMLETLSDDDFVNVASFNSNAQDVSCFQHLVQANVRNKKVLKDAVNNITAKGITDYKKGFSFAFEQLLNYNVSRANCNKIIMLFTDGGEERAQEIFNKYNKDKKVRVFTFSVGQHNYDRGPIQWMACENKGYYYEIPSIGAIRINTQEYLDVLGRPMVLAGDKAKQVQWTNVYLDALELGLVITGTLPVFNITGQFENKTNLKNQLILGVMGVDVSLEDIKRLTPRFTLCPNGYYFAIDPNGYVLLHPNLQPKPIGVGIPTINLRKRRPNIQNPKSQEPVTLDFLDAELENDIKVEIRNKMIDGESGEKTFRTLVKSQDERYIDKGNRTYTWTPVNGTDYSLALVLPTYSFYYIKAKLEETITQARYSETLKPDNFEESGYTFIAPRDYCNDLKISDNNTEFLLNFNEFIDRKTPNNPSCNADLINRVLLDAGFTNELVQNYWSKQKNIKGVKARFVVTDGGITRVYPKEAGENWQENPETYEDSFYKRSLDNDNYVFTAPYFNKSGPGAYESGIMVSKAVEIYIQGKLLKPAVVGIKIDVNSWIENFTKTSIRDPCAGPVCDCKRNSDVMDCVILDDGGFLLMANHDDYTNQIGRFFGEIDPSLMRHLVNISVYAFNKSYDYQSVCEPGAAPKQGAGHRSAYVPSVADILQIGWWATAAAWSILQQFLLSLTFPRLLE
T1 sequence (P54289 957-1103 partner limits assumed): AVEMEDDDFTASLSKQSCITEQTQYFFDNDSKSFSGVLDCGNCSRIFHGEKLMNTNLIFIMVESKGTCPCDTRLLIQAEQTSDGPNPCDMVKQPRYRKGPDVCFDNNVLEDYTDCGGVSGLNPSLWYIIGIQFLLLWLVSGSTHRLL
T1 sequence (Q02641 whole entry partner): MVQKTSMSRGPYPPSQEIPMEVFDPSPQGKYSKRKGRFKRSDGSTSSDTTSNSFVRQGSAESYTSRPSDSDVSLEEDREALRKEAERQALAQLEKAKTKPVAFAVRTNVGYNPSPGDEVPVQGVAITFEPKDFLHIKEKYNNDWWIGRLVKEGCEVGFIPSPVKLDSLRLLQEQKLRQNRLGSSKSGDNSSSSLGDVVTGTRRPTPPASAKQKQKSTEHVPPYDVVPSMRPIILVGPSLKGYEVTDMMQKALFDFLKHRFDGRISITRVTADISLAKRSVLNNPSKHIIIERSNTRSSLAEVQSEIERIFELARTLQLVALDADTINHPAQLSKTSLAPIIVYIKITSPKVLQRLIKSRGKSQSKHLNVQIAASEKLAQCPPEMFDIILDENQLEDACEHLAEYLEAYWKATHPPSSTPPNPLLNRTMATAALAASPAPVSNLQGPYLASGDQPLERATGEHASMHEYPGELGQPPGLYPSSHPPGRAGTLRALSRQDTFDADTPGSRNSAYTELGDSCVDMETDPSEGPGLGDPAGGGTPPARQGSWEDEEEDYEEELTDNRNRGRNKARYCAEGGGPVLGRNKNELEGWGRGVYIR

melting point [°C] | IC50 (N-type Ca2+ channel) [µM] | inhibition at 1 µM (N-type Ca2+ channel) [%] | inhibition at 10 µM (N-type Ca2+ channel) [%] | Compound | responders at 30 mg/kg (DBA/2 mice) [%] | responders at 10 mg/kg (DBA/2 mice; 10 mg/kg) [%]
48 to 52 | 0.75 | – | – | CC(C)=CCN(CCCNC(=O)[C@H](CC(C)C)NC(=O)N1CCCCCC1)c1ccc(OCc2ccccc2)cc1 [Example 4, (S)-Azepane-1-carboxylic acid (1-{3-[(4-benzyloxy-phenyl)-(3-methyl-but-2-enyl)-amino]-propylcarbamoyl}-3-methyl-butyl)-amide] | – | –
125 to 126 | – | – | – | CC(C)=CCN(c1ccc(OCc2ccccc2)cc1)C1CCN(C(=O)[C@H](CC(C)C)NC(=O)N2CCCCCC2)CC1 (as salt: hydrochloride) [Example 5, (S)-Azepane-1-carboxylic acid (1-{4-[(4-benzyloxy-phenyl)-(3-methyl-but-2-enyl)-amino]-piperidine-1-carbonyl}-3-methyl-butyl)-amide hydrochloride salt] | – | –
71 | 0.69 | – | – | CC(C)=CCN(CCNC(=O)[C@H](CC(C)C)NC(=O)N1CCCCCC1)c1ccc(OCc2ccccc2)cc1 [Example 3, (S)-Azepane-1-carboxylic acid (1-{2-[(4-benzyloxy-phenyl)-(3-methyl-but-2-enyl)-amino]-ethylcarbamoyl}-3-methyl-butyl)-amide] | – | –
79 to 80 | 0.84 | – | – | CC(C)C[C@H](NC(=O)N1CCCCCC1)C(=O)NCCN(c1ccc(OCc2ccccc2)cc1)C1C=CCCC1 (stereo partly drawn) [Example 6, (S)-Azepane-1-carboxylic acid (1-{2-[(4-benzyloxy-phenyl)-cyclohex-2-enyl-amino]-ethylcarbamoyl}-3-methyl-butyl)-amide] | – | –
– | – | 54 | 82 | CC(C)=CCN(CC(C)(C)NC(=O)[C@H](CC(C)C)N(C)CC=C(C)C)c1ccc(OCc2ccccc2)cc1 [Example 10, (S)-4-Methyl-2-[methyl-(3-methyl-but-2-enyl)-amino]-pentanoic acid {2-[(4-benzyloxy-phenyl)-(3-methyl-but-2-enyl)-amino]-1,1-dimethyl-ethyl}-amide] | 80 | –
– | – | 50 | 100 | CC(C)CCN(c1ccc(OCc2ccccc2)cc1)C1CCN(C(=O)[C@@H](N)CC(C)C)CC1 [Example 44, (S)-2-Amino-1-{4-[(4-benzyloxy-phenyl)-(3-methyl-butyl)-amino]-piperidin-1-yl}-4-methyl-pentan-1-one] | – | 20
65 to 66 | 1.9 | – | – | CC(C)C[C@H](NC(=O)N1CCCCCC1)C(=O)NCCN(Cc1ccccc1)c1ccc(OCc2ccccc2)cc1 [Example 7, (S)-Azepane-1-carboxylic acid (1-{2-[benzyl-(4-benzyloxy-phenyl)-amino]-ethylcarbamoyl}-3-methyl-butyl)-amide] | – | –
– | 0.49 | – | – | CC(C)CCN(c1ccc(NCc2ccc(N(C)C)cc2)cc1)C1CCN(C(=O)[C@H](CC(C)C)NC(=O)N2CCCCCC2)CC1 [Example 41, (S)-Azepane-1-carboxylic acid (1-{4-[[4-(4-dimethylamino-benzylamino)-phenyl]-(3-methyl-butyl)-amino]-piperidine-1-carbonyl}-3-methyl-butyl)-amide] | 20 | –
